The results in this text go back to patent US8637252B2, “Methods and compositions for determining altered susceptibility of HIV-1 to anti-HIV drugs” (Monogram Biosciences, Inc., priority 2011, dated 2014).

Assay [1] concerns HIV-1 NL4-3 site-directed reverse transcriptase mutants. Nature of the assay: phenotypic drug resistance test, site-directed reverse transcriptase mutants in NL4-3 background (POL segment assay). The format is cell-based. The following applies: for resistance versus known NNRTI mutation(s) alone: any of N348I, T369I, E399D combined with G190S, K103N, or K103R and V179D, NL4-3 background. The procedure:
Further, a site directed double mutant T3691/K103N was generated using conventional techniques and tested for resistance to an NNRTI using the methods described above.
To assess the effects of mutations at positions 348, 369, and 399, a series of site-directed mutants were constructed in an wild-type (NL4-3) background. The NNRTI susceptibility phenotypes of these mutants were then determined using the POL segment assay according to Example 2.
In particular, site-directed mutants were constructed in an NL4-3 background comprising N348I, T369I, E399D, or the combination of N3481 and T369I.
Next, a series of site-directed mutants were constructed to assess the effects of combinations of N3481, T369I, and E399D with previously recognized NNRTI resistance mutations. In particular, mutants comprising N348I, T369I, and E399D were made in combination with G190S, with K103N, and with the combination of K103R and V179D. The effects of these combinations on DLV, EFV, and NVP susceptibility were tested using the POL segment assay according to the method describe in Example 2. The results from these experiments are presented as FIG. 10.
To assess the specific effects of mutations at positions 348, 369, and 399, a series of site-directed mutants were constructed in an wild-type (NL4-3) background. The AZT susceptibility phenotype of these mutants were then determined with a POL segment assay according to Example 2.
In particular, site-directed mutants were constructed in an NL4-3 background comprising N348I, T3691, E399D, or the combination of N348I and T3691. The FC in AZT susceptibility for each mutant is shown as FIG. 13.

For assay [2], the system named is HIV-1 (PRRT-RHIN segment of patient sample 62). Nature of the assay: phenotypic drug resistance test, PRRT-RHIN amplicon of sample 62. The format is cell-based. The text has this:
Patient-derived segment(s) corresponding to the entire pol gene, encoding HIV protease, reverse transcriptase (including RNAse H), and integrase (hereinafter “POL”), the portion of pol encoding amino acids 1-305 of reverse transcriptase (hereinafter “PR-RT”), the portion of pol encoding amino acids 319-440 of reverse transcriptase (including RNAse H), and integrase (hereinafter “RHIN”), were amplified by the reverse transcription-polymerase chain reaction method (RT-PCR) using viral RNA isolated from viral particles present in the plasma or serum of HIV-infected individuals as described below. The portion of pol encoding protease, amino acids 1-531 of reverse transcriptase (including RNase H) (hereinafter “PRRT-RH”), or the portion of pol encoding protease, reverse transcriptase (including RNAse H) and integrase (hereinafter “PRRT-RHIN”), were assembled from amplicons described above by standard recombinant DNA techniques involving a KpnI restriction site at amino acid 400 or a Pin A1 site at amino acid 315.
Drug resistance tests performed with test vectors were carried out using packaging host and target host cells consisting of the human embryonic kidney cell line 293.
Resistance tests were carried out with the RTV libraries by using viral particles comprising the RTV libraries to infect a host cell in which the expression of the indicator gene is measured. The amount of indicator gene (luciferase) activity detected in infected cells is used as a direct measure of “infectivity,” i.e., the ability of the virus to complete a single round of replication. Thus, drug resistance or sensitivity can be determined by plotting the amount of luciferase activity produced by patient derived viruses in the presence of varying concentrations of the antiviral drug. By identifying the concentration of drug at which luciferase activity is half-maximum, the IC50 of the virus from which patient-derived segment(s) were obtained for the antiretroviral agent can be determined. […]

As to `CC(C)Nc1cccnc1N1CCN(C(=O)c2cc3cc(NS(C)(=O)=O)ccc3[nH]2)CC1` [DLV, delavirdine], the “FC in susceptibility relative to NL4-3, versus G190S mutant” value in assay [1] (G190S and E399D combination mutant) is recorded as “the same FC”. Further, in assay [2], the “Fold Change in IC50, PRRT-RHIN amplicon” value is 140.00 fold.

Take `O=C1Nc2ccc(Cl)cc2[C@@](C#CC2CC2)(C(F)(F)F)O1` [EFV, efavirenz]: in assay [1], the “resistance versus known NNRTI mutation(s) alone” value was “increased”. For the same compound, the “Fold Change in IC50, PRRT-RHIN amplicon” value in assay [2] turned out to be 202.00 fold.

Consider `Cc1ccnc2c1NC(=O)c1cccnc1N2C1CC1` [NVP, nevirapine], for which the “resistance versus known NNRTI mutation(s) alone” value in assay [1] is “increased”. Besides, the resistance of mutant result in assay [1] (site-directed double mutant T369I/K103N) is recorded as “enhanced resistance”. Also, in assay [2], the “Fold Change in IC50, PRRT-RHIN amplicon” value was 400.00 fold.
